Measured values as given in ChEMBL document CHEMBL5532641, “MNK, mTOR or eIF4E-selecting the best anti-tumor target for blocking translation initiation” (Eur J Med Chem, 2023).
Each block holds one compound with its values, some of them ahead of it.

Experiments:
in vivo = settings: mouse, po
mTORC1 (Homo sapiens) = mTORC1 (Homo sapiens) (UniProt P42345+Q8N122+Q9BVC4); settings: dose 500.0 nM
EIF4E/EIF4G1 = EIF4E/EIF4G1 (Homo sapiens, UniProt P06730+Q04637); assay type: protein-complex assay
[1] = target: Eukaryotic initiation factor 4A-I (Homo sapiens, UniProt P60842)
Leukemia cell = test: cells; assay type: functional, cell-based; settings: Homo sapiens, 72 h
Lymphoma cell line = test: cells; assay type: functional, cell-based; settings: Homo sapiens, 72 h
MDA-MB-231 [2] = test: animal or person; assay type: functional, Homo sapiens; settings: Mus musculus, MDA-MB-231, 696 h, route ip, time 29 day, read-out: TGI
MDA-MB-231 [3] = test: animal or person; assay type: functional, Homo sapiens; settings: Mus musculus, MDA-MB-231, 696 h, route ip, time 29 day, read-out: TGI; remark: listed apart in the source
MDA-MB-231 [4] = test: animal or person; assay type: functional, Homo sapiens; settings: Mus musculus, MDA-MB-231, 696 h, route ip, time 29 day, read-out: TGI; remark: listed apart in the source
CWR22R [5] = test: animal or person; assay type: functional, Homo sapiens; settings: Mus musculus, 22Rv1, 816 h, route ip, time 34 day, read-out: TGI
CWR22R [6] = test: animal or person; assay type: functional, Homo sapiens; settings: Mus musculus, 22Rv1, 816 h, route ip, time 34 day, read-out: TGI; remark: listed apart in the source
animal or person = assay type: functional; settings: Homo sapiens, BR100 cell, 408 h, route ip, time 17 day, read-out: TGI
A549 = test: cells; assay type: functional, cell-based; settings: Homo sapiens, A549, 70 min
[7] = target: Phosphatidylinositol 4,5-bisphosphate 3-kinase catalytic subunit gamma isoform (Homo sapiens, UniProt P48736)
[8] = target: MAP kinase-interacting serine/threonine-protein kinase 2 (Homo sapiens, UniProt Q9HBH9)
Chain of MAP kinase-interacting serine/threonine-protein kinase 2 (Q9HBH9 whole entry): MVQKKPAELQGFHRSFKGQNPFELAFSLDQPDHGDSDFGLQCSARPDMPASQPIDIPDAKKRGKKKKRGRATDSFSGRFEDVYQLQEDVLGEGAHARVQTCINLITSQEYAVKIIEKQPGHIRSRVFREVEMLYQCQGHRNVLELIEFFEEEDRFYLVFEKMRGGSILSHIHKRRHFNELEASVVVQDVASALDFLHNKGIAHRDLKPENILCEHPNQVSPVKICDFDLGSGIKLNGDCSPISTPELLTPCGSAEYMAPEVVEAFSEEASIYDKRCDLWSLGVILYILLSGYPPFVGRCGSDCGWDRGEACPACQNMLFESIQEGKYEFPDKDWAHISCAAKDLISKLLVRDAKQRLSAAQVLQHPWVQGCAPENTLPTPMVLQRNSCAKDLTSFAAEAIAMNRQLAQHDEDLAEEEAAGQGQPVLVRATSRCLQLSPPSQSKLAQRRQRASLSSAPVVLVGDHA

Chain of Eukaryotic initiation factor 4A-I (P60842 whole entry): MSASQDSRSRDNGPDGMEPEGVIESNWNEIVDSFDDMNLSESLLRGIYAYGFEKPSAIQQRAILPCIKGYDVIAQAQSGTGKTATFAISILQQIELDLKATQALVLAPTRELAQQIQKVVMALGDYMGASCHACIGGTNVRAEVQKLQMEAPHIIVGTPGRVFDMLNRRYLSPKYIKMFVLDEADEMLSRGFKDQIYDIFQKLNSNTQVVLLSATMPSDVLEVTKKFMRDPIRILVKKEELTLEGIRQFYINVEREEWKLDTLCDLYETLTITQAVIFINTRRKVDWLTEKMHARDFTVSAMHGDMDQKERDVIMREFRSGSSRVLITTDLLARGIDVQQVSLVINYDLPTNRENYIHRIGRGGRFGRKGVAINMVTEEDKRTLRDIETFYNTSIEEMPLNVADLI
Chain of mTORC1 (Homo sapiens) (Q8N122 whole entry, looked up, other chains not shown): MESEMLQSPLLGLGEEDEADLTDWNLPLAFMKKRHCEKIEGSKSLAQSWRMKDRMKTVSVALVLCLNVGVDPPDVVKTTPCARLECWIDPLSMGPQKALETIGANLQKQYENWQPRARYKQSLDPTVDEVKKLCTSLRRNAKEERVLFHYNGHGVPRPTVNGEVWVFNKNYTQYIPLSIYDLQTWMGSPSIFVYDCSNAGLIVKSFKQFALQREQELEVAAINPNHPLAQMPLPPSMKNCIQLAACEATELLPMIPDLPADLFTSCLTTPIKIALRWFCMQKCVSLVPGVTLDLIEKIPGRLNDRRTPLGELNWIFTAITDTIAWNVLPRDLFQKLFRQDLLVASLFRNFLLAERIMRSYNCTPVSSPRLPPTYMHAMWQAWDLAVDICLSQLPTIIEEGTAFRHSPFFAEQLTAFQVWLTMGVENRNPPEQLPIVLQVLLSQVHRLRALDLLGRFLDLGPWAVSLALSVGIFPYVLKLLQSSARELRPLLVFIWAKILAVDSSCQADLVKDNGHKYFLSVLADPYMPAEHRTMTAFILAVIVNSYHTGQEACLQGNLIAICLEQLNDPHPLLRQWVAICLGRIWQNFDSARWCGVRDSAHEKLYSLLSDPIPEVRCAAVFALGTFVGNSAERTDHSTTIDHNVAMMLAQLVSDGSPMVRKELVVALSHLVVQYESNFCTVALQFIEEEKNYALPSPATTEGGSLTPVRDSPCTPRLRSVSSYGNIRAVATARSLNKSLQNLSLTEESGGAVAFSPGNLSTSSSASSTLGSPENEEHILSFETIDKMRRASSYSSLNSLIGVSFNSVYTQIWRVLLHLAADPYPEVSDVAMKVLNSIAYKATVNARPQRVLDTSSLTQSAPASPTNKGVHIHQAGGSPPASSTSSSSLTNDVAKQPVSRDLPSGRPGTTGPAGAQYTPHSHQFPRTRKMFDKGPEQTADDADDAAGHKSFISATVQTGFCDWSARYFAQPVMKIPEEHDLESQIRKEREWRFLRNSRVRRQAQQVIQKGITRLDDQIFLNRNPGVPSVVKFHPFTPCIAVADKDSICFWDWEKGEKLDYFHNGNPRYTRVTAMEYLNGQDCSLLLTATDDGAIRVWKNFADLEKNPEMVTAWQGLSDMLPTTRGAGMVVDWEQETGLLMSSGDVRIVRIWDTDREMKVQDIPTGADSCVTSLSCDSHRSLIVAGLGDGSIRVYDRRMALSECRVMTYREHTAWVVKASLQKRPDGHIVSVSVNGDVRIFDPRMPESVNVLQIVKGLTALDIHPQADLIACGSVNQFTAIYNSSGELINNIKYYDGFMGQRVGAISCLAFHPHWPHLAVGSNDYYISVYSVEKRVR
Chain of mTORC1 (Homo sapiens) (Q9BVC4 whole entry, looked up, other chains not shown): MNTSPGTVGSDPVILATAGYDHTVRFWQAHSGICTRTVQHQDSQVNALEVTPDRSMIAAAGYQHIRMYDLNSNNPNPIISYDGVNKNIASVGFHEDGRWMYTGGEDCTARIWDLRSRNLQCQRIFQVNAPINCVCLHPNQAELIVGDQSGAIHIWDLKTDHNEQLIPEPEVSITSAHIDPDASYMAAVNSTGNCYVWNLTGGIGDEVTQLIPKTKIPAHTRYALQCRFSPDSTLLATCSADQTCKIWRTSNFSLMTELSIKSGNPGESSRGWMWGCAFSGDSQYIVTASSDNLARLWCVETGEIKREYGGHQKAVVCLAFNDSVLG
Chain of Phosphatidylinositol 4,5-bisphosphate 3-kinase catalytic subunit gamma isoform (P48736 whole entry, canonical isoform): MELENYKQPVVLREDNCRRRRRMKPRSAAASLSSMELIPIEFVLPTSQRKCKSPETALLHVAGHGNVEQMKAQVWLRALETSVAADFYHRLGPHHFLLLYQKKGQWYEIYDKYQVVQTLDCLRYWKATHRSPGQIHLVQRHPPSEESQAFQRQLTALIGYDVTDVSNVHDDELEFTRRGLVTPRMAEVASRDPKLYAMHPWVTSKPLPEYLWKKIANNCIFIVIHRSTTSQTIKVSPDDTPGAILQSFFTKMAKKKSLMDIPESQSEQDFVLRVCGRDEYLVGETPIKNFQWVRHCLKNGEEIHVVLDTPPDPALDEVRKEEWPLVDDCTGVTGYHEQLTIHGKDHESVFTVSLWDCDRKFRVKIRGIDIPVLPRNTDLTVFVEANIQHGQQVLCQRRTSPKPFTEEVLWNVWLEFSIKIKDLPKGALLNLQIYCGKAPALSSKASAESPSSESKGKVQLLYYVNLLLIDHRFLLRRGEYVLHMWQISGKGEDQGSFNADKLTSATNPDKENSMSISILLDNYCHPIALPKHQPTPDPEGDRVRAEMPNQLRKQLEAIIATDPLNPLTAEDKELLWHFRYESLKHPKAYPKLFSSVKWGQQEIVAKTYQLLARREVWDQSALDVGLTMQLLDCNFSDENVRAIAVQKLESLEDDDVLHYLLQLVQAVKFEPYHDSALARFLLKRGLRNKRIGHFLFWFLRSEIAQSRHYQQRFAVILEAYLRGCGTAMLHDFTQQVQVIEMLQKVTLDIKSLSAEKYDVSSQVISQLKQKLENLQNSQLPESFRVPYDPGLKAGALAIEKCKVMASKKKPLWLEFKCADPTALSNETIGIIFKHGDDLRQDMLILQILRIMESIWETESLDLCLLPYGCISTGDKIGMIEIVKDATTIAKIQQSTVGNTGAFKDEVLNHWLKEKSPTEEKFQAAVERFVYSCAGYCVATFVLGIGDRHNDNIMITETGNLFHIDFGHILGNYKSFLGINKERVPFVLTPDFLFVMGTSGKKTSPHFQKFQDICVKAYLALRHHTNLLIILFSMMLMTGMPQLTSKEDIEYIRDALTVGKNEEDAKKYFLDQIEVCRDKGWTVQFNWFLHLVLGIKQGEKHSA

Compound: COC(=O)[C@H]1[C@@H](O)[C@@]2(O)c3c(OC)cc(O[C@@H]4O[C@@H]([C@H](O)CO)CO[C@H]4OC)cc3O[C@@]2(c2ccc(OC)cc2)[C@@H]1c1ccccc1 [SILVESTROL]
- bioavailability (in vivo): 1%

Compound: C=C1C[C@@H](O)[C@@H](Br)C(C)(C)[C@]12CCC(C)=C(Cl)C2
- IC50 [1]: 16400 nM
- IC50 (Leukemia cell): 1700 nM
- IC50 (Lymphoma cell line): 1600 nM

Compound: CC1=C(/C=C/C(C)=C/C=C/C(C)=C/C(=O)Nc2ccc(F)cc2)C(C)(C)CCC1n1ccnc1 (stereo not given)
- inhibition in vivo at 10 mg/kg (MDA-MB-231 [2]): 97%
- inhibition in vivo at 20 mg/kg (MDA-MB-231 [3]): 97%
- inhibition in vivo at 5 mg/kg (MDA-MB-231 [4]): 91%
- inhibition in vivo at 10 mg/kg (CWR22R [5]): 63.4%
- inhibition in vivo at 20 mg/kg (CWR22R [6]): 76.3%
- inhibition in vivo at 10 mg/kg (animal or person): 73.3%

Compound: COc1ncc(-c2ccc3nccc(-c4ccnnc4)c3c2)cc1NS(=O)(=O)c1ccc(F)cc1F [OMIPALISIB]
- IC50 [7]: 0.024 nM

The next lines start with the values.

- inhibition (mTORC1 (Homo sapiens)): 83.9%
Compound: Oc1cccc(-c2nc(N3CCOCC3)c3oc4ncccc4c3n2)c1

- IC50 (EIF4E/EIF4G1): 13500 nM
Compound: O=C(O)c1cc(-c2ccc(/C=C3\SC(=S)N(Cc4ccccc4)C3=O)o2)ccc1Cl

- IC50 (A549): 6000 nM
Compound: O=C(O)/C(Cc1ccccc1[N+](=O)[O-])=N/Nc1nc(-c2ccc(Cl)c(Cl)c2)cs1

- IC50 [8]: 904 nM
Compound: C[C@H](CN)Oc1ccc2ncc(-c3cc4ccccc4o3)n2n1
